According to US10259815B2, “Gabaergic ligands and their uses” (UWM Research Foundation, Inc., priority 2015, dated 2019):
Entries after “also recorded” stand apart in the source; their conditions may differ.

Experiments:
[1] = Pharmacokinetics and brain concentration after 10 mg/kg P.O. dose, rats; assay type: in vivo
Procedure: In a 10 mg/kg oral dose in rats, a concentration of 644 ng/g of KRM-II-81 was found unbound in the brain, indicating a great pharmacokinetic-profile.
Although these are different species, the numbers can still be compared.

[2] = test system: Male CD-1 mice; experiment: Maximal electroshock (MES)-induced convulsion protection; assay type: in vivo; settings: i.p. 30 minutes prior to test
Procedure: Male CD-1 mice (n=10) were dosed i.p. 30 minutes prior to being tested. Results were analyzed using ANOVA (Dunnett's test versus vehicle: *P<0.05).
The maximal electroshock (MES) assay is designed to determine how well a test compound can prevent seizures induced by applying a voltage stimuli to a mouse.
Mice were subjected to electrical induced tonic seizures and examined for anticonvulsant effects 30 minutes after treatment. Mice were then given a 7 mA electroshock using a Wahlquist Model H for 0.2 seconds and observed for the presence or absence of seizure activity. Each mouse is tested only once and euthanized immediately following the test.

[3] = test system: Male Sprague-Dawley rats; experiment: scMET-induced seizure protection, rats; assay type: in vivo; settings: i.p. 30 minutes prior; pentylenetetrazole 35 mg/kg
Procedure: A 35 mg/kg subcutaneous dose of pentylenetetrazole was given and the percent outcome of seizure was recorded. Results were analyzed using ANOVA (Dunnett's test: *P<0.05).
Test subjects were given a test compound, followed by a 35 mg/kg dose of MET and observed for convulsions (FIG. 7).
(§1) Results were analyzed using ANOVA (Dunnett's test: *P<0.05).

[4] = test system: Male Sprague-Dawley rats; experiment: PTZ-induced seizure threshold; assay type: in vivo
Procedure: as §1
After a pretreatment of test compound, MET was intravenously administered to a test subject until a convulsions were observed.
Each animal was used only once and was euthanized post testing. Results were analyzed using ANOVA (Dunnett's test: *P<0.05).

[5] = test system: Male NIH Swiss mice; experiment: Marble burying assay (anxiolytic); assay type: in vivo
Procedure: Male NIH Swiss mice (n=10) were dosed i.p. with vehicle (1% carboxymethyl cellulose) or one of the test compounds (10 or 30 mg/kg) 30 minutes prior to being tested in the marble burying assay.
The marble burying assay is designed to measure the anxiolytic-effect of a compound. When mice are nervous, they will bury marbles. As there becomes a decrease in amount of marbles buried, the better anxiolytic effect of a compound.
The marble burying assay is used to determine the anxiolytic activity of a given compound. Mice are placed in a tub containing 20 marbles placed over a bed of sawdust. Defensive burying (Broekkamp 1986) is the natural reaction for the mice. When given an anxiolytic, such as diazepam, the mice are less likely to defensively bury the marbles.
Experiments were carried out by the methods described in Li et al. (Life Sciences 2006, 78, 1933-1939). Separate groups of mice were used in these experiments and were conducted in a dimly lit testing room. After 60 min acclimation to the experimental room, mice were placed in a 17×28×12 cm high plastic tub with […] sawdust shavings (Harlan Sani-Chips, Harlan-Teklad, Indianapolis, Ind., USA) on the floor, which was covered with 20 blue marbles (1.5 cm diameter) placed in the center. […] The number of marbles buried (⅔ covered with sawdust) was counted and submitted to inter-observer reliability assessment.

[6] = test system: Male NIH Swiss mice; experiment: Forced swim test; assay type: in vivo; settings: 10 and 30 mg/kg i.p.
Procedure: FIG. 16 is a graph of immobility illustrating the antidepressant effects of KRM-II-81 assessed in the forced swim test. Male NIH Swiss mice (n=7-8) were dosed i.p. with vehicle (1% HEC, 0.25% Tween 80, 0.05% antifoam), KRM-II-81 (3, 10, or 30 mg/kg), or imipramine (15 mg/kg) and assessed in the forced swim test. Results were analyzed using ANOVA (Dunnett's test *P<0.05).
The forced swim test is used as a primary screen for the antidepressant nature of a test compound. Mice are placed in a cylinder filled with a small amount of water. Mice that are more mobile after a dosing of a compound are determined to be less depressed.
The experiment was carried out as described by Porsolt et al. (Arch. Int. Pharmacodyn. Ther. 1977, 229, 327-366). Male NIH Swiss mice (n=7-8) were dosed i.p. with vehicle (1% HEC, 0.25% Tween 80, 0.05% antifoam), KRM-II-81 (3, 10, or 30 mg/kg), or imipramine (15 mg/kg) and assessed in the forced swim test. Mice were placed individually in clear plastic cylinders (10 cm in diameter×25 cm in height) filled to 6 cm with 22-25° C. water for 6 minutes. The duration of immobility was recorded during the last 4 minutes of a 6-minute trial. A mouse was regarded as immobile when floating motionless or making only those movements necessary to keep its head above the water.

[7] = biological target: CYP2D6 (Homo sapiens, UniProt P10635); experiment: CYP substrate assessment, CYP2D6
[8] = biological target: CYP2C9 (Homo sapiens, UniProt P11712); experiment: CYP substrate assessment, CYP2C9
CYP2C9, sequence (P11712 whole entry): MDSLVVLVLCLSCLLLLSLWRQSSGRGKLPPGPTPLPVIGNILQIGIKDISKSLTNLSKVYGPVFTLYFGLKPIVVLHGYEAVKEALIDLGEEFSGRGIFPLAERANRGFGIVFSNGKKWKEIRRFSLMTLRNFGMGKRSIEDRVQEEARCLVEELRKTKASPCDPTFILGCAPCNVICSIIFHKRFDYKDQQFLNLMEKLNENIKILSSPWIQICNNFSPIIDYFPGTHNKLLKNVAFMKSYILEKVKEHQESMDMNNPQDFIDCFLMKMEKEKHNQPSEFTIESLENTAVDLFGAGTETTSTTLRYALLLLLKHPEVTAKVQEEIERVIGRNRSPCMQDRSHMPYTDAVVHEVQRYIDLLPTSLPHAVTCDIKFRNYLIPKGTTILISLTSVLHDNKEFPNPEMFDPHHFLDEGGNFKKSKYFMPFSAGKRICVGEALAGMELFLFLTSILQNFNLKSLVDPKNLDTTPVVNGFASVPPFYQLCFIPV

CYP2D6, sequence (P10635 whole entry): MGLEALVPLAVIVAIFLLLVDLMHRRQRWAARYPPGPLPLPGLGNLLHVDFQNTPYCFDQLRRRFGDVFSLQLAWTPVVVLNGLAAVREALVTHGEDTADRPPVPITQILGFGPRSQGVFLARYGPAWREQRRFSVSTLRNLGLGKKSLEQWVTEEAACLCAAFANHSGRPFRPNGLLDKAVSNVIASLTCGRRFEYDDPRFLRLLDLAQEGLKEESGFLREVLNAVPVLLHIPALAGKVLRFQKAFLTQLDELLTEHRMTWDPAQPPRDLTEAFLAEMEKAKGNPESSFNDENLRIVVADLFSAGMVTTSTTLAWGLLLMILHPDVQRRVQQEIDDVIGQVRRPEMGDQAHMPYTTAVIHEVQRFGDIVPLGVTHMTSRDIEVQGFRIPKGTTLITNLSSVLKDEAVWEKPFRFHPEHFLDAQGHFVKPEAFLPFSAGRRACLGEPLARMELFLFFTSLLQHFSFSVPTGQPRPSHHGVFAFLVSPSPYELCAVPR

C#Cc1ccc2c(c1)C(c1ccccn1)=NCc1c(-c3cnco3)ncn1-2 [KRM-II-81, 5-(8-Ethynyl-6-(pyridin-2-yl)-4H-benzo[f]imidazo[1,5-a][1,4]diazepin-3-yl)oxazole]
concentration in the blood relative to HZ-166 ([1]; Cmax, 10 mg/kg P.O., KRM-II-81 in rats vs HZ-166 in mice): ~500 times | Tmax ([1]; rat, blood, po, 10 mg/kg P.O., rats): 1.3 h | Cmax ([1]; rat, blood, po, 10 mg/kg P.O., rats, read-out: Cmax (highest concentration found in blood)): 1750 ng/mL | concentration at 1 h ([1]; rat, brain (unbound), 10 mg/kg oral dose, one hour after dose, rats stated for KRM-II-81, read-out: brain unbound concentration ([brain]u)): 644 ng/g | fraction unbound ([1]; rat, 10 mg/kg oral dose, brain, read-out: free fraction): 0.18 | protection against MES-induced seizures [2]: greater effectiveness than HZ-166; also recorded: fully protected against seizure induction | dose achieving significant protection against scMET seizures [3]: 30 mg/kg | dose of MET required for convulsion ([4]; pretreated with 10 mg/kg i.p., PTZ infused i.v.): 71 mg/kg | effect on seizure threshold to PTZ ([4]; test compound 3 to 60 mg/kg, diazepam 0.1 to 1 mg/kg i.p.): significantly increased the seizure threshold to PTZ; also recorded: larger maximal effect | sedation observed in marble burying assay ([5]; 10 and 30 mg/kg i.p.): without observed signs of sedation | anxiolytic activity in marble burying assay ([5]; mouse, in vivo): better anxiolytic than HZ-166; also recorded: good activity in the marble burying | antidepressant effects (immobility) [6]: demonstrated antidepressant effects | substrate of CYP2D6 [7]: not found to be a substrate | substrate of CYP2C9 [8]: not found to be a substrate
